{"source": "patent US6653529B2", "about": "“Use of the maize X112 mutant ahas 2 gene and imidazolinone herbicides for selection of transgenic monocots, maize, rice and wheat plants resistant to the imidazolinone herbicides” (BASF Aktiengesellschaft, priority 2000, dated 2003)", "type_in_all_cases": "in vivo", "key": {"[1]": {"tested_on": "8692 (wild type control corn line)", "assay": "Greenhouse spray test of corn lines with imidazolinone herbicides, injury score", "conditions": "for Score, individual plants (0 dead plants, 5 healthy plants with no injury): 16 days after treatment; for M.S.: score 0 (dead) to 5 (healthy), 16 days"}, "[2]": {"tested_on": "8692IT (heterozygous XI12 imi-tolerant corn line)", "assay": "Greenhouse spray test of corn lines with imidazolinone herbicides, injury score", "conditions": "for Score, individual plants (0 dead plants, 5 healthy plants with no injury): 16 days after treatment; for M.S.: score 0 (dead) to 5 (healthy), 16 days"}, "[3]": {"tested_on": "rice plants (transgenic Lines 26 and 29; Nt control)", "assay": "Greenhouse herbicide tests on rice", "from_the_text": "We evaluated the response of transgenic rice to PURSUIT® imazethapyr application in the greenhouse. In this experiment, we included 2 transgenic lines and their untransformed counterpart (Nt). The transgenic lines, designated as Line 26 and 29, were T3 progeny derived from previously identified homozygous resistant transgenic plants containing the maize XI12 ahas2 gene driven by its own promoter. All seeds were pre-germinated in water for 2-3 days then grown in a planting mixture consisting of 1:1 soil and MetroMix 360 (The Scotts Company, Marysville, Ohio 43040) in 6-inch pots (2 seeds per pot) in the greenhouse and sprayed with PURSUIT® imazethapyr at 63, 125, or 250 g ai/ha. For post-emergence application, the plants were sprayed 15 days after seeding, at which time most plants had 3 leaves. For pre-emergence treatment, PURSUIT® imazethapyr was sprayed one day after seeding. Each treatment contained 20 plants and, and 3 replicates per treatment. One set of materials was not sprayed and used as control. The plants were grown in the greenhouse and harvested at maturity. The amount of PURSUIT® imazethapyr applied in this study (63, 125, or 250 g ai/ha) was close to 1, 2 or 4× field application rate for imi-resistant corn (refer to Table 3) since PURSUIT® imazethapyr is not currently labeled for use in rice fields. A custom designed belt sprayer was operated as described (Newhouse et al. 1992) for all herbicide applications. Five plants from each treatment were randomly chosen and individually measured for morphological traits. Means and standard deviations were calculated over three replications. Plant heights were measured from the base of the plant to the tip of the flag leaf 93 days after herbicide applications (DAH) and number of tillers per plant were counted 102-103 DAH. Data on number of panicles per plant and yield were collected after plants were harvested.\nA total of 9 herbicides, 5 imidazolinones, two rice herbicides and ACCENT® (nicosulfuron) and CLASSIC® (clorimuron-ethyl) were applied in this study. Materials and methods were basically the same as described above, except that instead of 6″ pots, flats with 18 (3″×3″ per cell) cells were used, and 10-12 seeds were planted to one 3″×3″ cell. Ten plants were maintained in one cell in the post-emergence application. Each herbicide was sprayed at 4 different rates, 1, 2, 4, and 6×, as either pre or post-emergence applications with three replications per treatment. The name and amount of herbicide applied in this experiment and information relevant to their commercial applications are listed in Table 3. For simplicity and convenience, the lowest concentration used is referred as 1× rate, 2, 4 and 6× rates can be calculated as multiples of 1×.\nTo monitor plant response to various herbicides, data on fresh weight was collected. For pre-emergence applications, all plants from one cell were harvested 32 days after spraying (36-day old plants) and weighed. Twenty-nine days after herbicide application, 5 plants (44-day old plants) from each cell in the post-emergence application, were cut and weighed individually. Mean fresh weight for each treatment was calculated over three replications. The remaining 5 plants were grown in the greenhouse to maturity at which time, panicles of 3 plants were collected, and number of filled seeds and number of total kernels were counted to determine percentage of seed set."}, "[4]": {"tested_on": "3395IR (homozygous XA17 imi-resistant corn line)", "assay": "Greenhouse spray test of corn lines with imidazolinone herbicides, injury score", "conditions": "for Score, individual plants (0 dead plants, 5 healthy plants with no injury): 16 days after treatment; for M.S.: score 0 (dead) to 5 (healthy), 16 days", "from_the_text": "(§1) Grow one corn plant per pot (5×5 inch) in a 3×5 flat till three- to four-leaf stage (about 9 to 13 days depending on the weather). On the day of spraying, water the plants well and let excess water drip out. Spray plants on a belt-sprayer with the imidazolinone herbicides at desired rates. […] When temperature was too high, base water plants to prevent wilting. Closely observe the plants for the next two to three weeks. Symptoms of herbicide injury will be visible three days after spraying and susceptible plants will die within two to three weeks depending on temperature.\n(§2) The plants were rated on a scale of 0-5 with 0 for dead plants and 5 for healthy plants with no or minimum injury.\n(§3) Two transgenic hybrids BAa-4 and MAa-7 lines (see FIG. 5 for their pedigree), a non-transformed control line B×A (B73×A188), 8962IT (heterozygous XI12 imi-tolerant corn line), 8962 (wild type control) and 3395IR (homozygous XA17 imi-resistant corn line) (8962IT and 8962 were from ICI, now Garst Seed Company, Slater, Iowa 50244, and 3395IR was from Pioneer Hi-Bred International Inc, Iowa 50306-3453). Plants were sprayed with 4, 8, 16 or 20×PURSUIT® imazethapyr, ARSENAL® imazapyr, CADRE® imazameth or RAPTOR® imazamox. Plants were scored 0 to 5 (with 0 being dead plants, 5 being healthy plants with no injury) individually 16 days after herbicide treatments. […] For the four tested imidazolinones, transgenic plants could tolerate higher rates of ARSENAL® imazapyr, PURSUIT® imazethapyr, than CADRE® imazameth and RAPTOR® imazamox."}, "[5]": {"tested_on": "transgenic corn hybrid MAa-7", "assay": "Greenhouse spray test of corn lines with imidazolinone herbicides, injury score", "conditions": "MAa-7; for Score, individual plants (0 dead plants, 5 healthy plants with no injury): 16 days after treatment; for M.S.: score 0 (dead) to 5 (healthy), 16 days", "from_the_text": "as §1, §2, §3"}, "[6]": {"tested_on": "non-transformed control corn line BxA (B73×A188)", "assay": "Greenhouse spray test of corn lines with imidazolinone herbicides, injury score", "conditions": "for Score, individual plants (0 dead plants, 5 healthy plants with no injury): 16 days after treatment; for M.S.: score 0 (dead) to 5 (healthy), 16 days", "from_the_text": "as §1, §2, §3"}, "[7]": {"tested_on": "transgenic corn hybrid BAa-4", "assay": "Greenhouse spray test of corn lines with imidazolinone herbicides, injury score", "conditions": "BAa-4; for Score, individual plants (0 dead plants, 5 healthy plants with no injury): 16 days after treatment; for M.S.: score 0 (dead) to 5 (healthy), 16 days", "from_the_text": "as §1, §2, §3"}, "[8]": {"conditions": "4×: PURSUIT 250, RAPTOR 160, ARSENAL 96, CADRE 400 g/ha"}, "[9]": {"conditions": "8×: PURSUIT 500, RAPTOR 320, ARSENAL 192, CADRE 800 g/ha"}}, "note": "Values joined by “and” are separate entries in the source; they are usually repeats but may differ in a detail not shown here. Identical values can stand only once."}
{"smiles": "CCc1cnc(C2=NC(C)(C(C)C)C(=O)N2)c(C(=O)O)c1", "note": "(stereo not drawn) [PURSUIT ®, imazethapyr]", "values": [{"measurement": "Score, individual plants (0 dead plants, 5 healthy plants with no injury)", "setting": "[1]; [8]", "value": "2 (3×) and 1 (2×)"}, {"measurement": "M.S.", "setting": "[1]; [8]", "value": 1.6}, {"measurement": "Score, individual plants (0 dead plants, 5 healthy plants with no injury)", "setting": "[1]; [9]", "value": 0}, {"measurement": "M.S.", "setting": "[1]; [9]", "value": 0}, {"measurement": "Score, individual plants (0 dead plants, 5 healthy plants with no injury)", "setting": "[1]; 20×: PURSUIT 1.25 kg/ha", "value": 0}, {"measurement": "M.S.", "setting": "[1]; 20×: PURSUIT 1.25 kg/ha", "value": 0}, {"measurement": "Score, individual plants (0 dead plants, 5 healthy plants with no injury)", "setting": "[2]; [8]", "value": 5}, {"measurement": "M.S.", "setting": "[2]; [8]", "value": 5}, {"measurement": "Score, individual plants (0 dead plants, 5 healthy plants with no injury)", "setting": "[2]; [9]", "value": "5 (4×) and 4"}, {"measurement": "M.S.", "setting": "[2]; [9]", "value": 4.8}, {"measurement": "Score, individual plants (0 dead plants, 5 healthy plants with no injury)", "setting": "[2]; 20×: PURSUIT 1.25 kg/ha", "value": "4 (4×) and 3"}, {"measurement": "M.S.", "setting": "[2]; 20×: PURSUIT 1.25 kg/ha", "value": 3.8}, {"measurement": "average seed set in two transgenic lines", "setting": "[3]; PURSUIT, RAPTOR, CADRE, SCEPTER at all rates tested, ARSENAL 1 to 2×", "value": "about 85%"}, {"measurement": "rate at which growth of transgenic plants was slightly affected", "setting": "[3]; post-emergence, fresh weight and visual observation", "value": 6, "unit": "×"}, {"measurement": "fate of transgenic plants of Lines 26 and 29", "setting": "[3]; pre-emergence, 63, 125, 250 g/ha", "value": "survived at all rates applied"}, {"measurement": "Score, individual plants (0 dead plants, 5 healthy plants with no injury)", "setting": "[4]; [8]", "value": 5}, {"measurement": "M.S.", "setting": "[4]; [8]", "value": 5}, {"measurement": "Score, individual plants (0 dead plants, 5 healthy plants with no injury)", "setting": "[4]; [9]", "value": 5}, {"measurement": "M.S.", "setting": "[4]; [9]", "value": 5}, {"measurement": "Score, individual plants (0 dead plants, 5 healthy plants with no injury)", "setting": "[4]; 20×: PURSUIT 1.25 kg/ha", "value": 5}, {"measurement": "M.S.", "setting": "[4]; 20×: PURSUIT 1.25 kg/ha", "value": 5}, {"measurement": "Score, individual plants (0 dead plants, 5 healthy plants with no injury)", "setting": "[5]; [8]", "value": 5}, {"measurement": "M.S.", "setting": "[5]; [8]", "value": 5}, {"measurement": "Score, individual plants (0 dead plants, 5 healthy plants with no injury)", "setting": "[5]; [9]", "value": 5}, {"measurement": "M.S.", "setting": "[5]; [9]", "value": 5}, {"measurement": "Score, individual plants (0 dead plants, 5 healthy plants with no injury)", "setting": "[5]; 20×: PURSUIT 1.25 kg/ha", "value": "0 and 3 and 2 (2×) and 4"}, {"measurement": "M.S.", "setting": "[5]; 20×: PURSUIT 1.25 kg/ha", "value": 2.2}, {"measurement": "Score, individual plants (0 dead plants, 5 healthy plants with no injury)", "setting": "[6]; [8]", "value": 0}, {"measurement": "M.S.", "setting": "[6]; [8]", "value": 0}, {"measurement": "Score, individual plants (0 dead plants, 5 healthy plants with no injury)", "setting": "[6]; [9]", "value": 0}, {"measurement": "M.S.", "setting": "[6]; [9]", "value": 0}, {"measurement": "Score, individual plants (0 dead plants, 5 healthy plants with no injury)", "setting": "[6]; 20×: PURSUIT 1.25 kg/ha", "value": 0}, {"measurement": "M.S.", "setting": "[6]; 20×: PURSUIT 1.25 kg/ha", "value": 0}, {"measurement": "Score, individual plants (0 dead plants, 5 healthy plants with no injury)", "setting": "[7]; [8]", "value": 5}, {"measurement": "M.S.", "setting": "[7]; [8]", "value": 5}, {"measurement": "Score, individual plants (0 dead plants, 5 healthy plants with no injury)", "setting": "[7]; [9]", "value": 5}, {"measurement": "M.S.", "setting": "[7]; [9]", "value": 5}, {"measurement": "Score, individual plants (0 dead plants, 5 healthy plants with no injury)", "setting": "[7]; 20×: PURSUIT 1.25 kg/ha", "value": "4 (3×) and 3 and 2"}, {"measurement": "M.S.", "setting": "[7]; 20×: PURSUIT 1.25 kg/ha", "value": 3.4}]}
